Test results from PubChem BioAssay (NCI).
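Five concentrations, 48 hours, 96-well plates. GI50 is the concentration that inhibits growth by half. The concentration for full growth arrest is given as TGI.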

Assays:
Assay in all cases: growth of human tumour cells (NCI), 48 h
PC-3 prostate = test system: PC-3 prostate
U251 CNS = test system: U251 CNS
KM12 colon = test system: KM12 colon
ACHN renal = test system: ACHN renal
HL-60(TB) leukemia = test system: HL-60(TB) leukemia
HOP-62 NSCLC = test system: HOP-62 NSCLC
DU-145 prostate = test system: DU-145 prostate
UO-31 renal = test system: UO-31 renal
EKVX NSCLC = test system: EKVX NSCLC
IGROV1 ovarian = test system: IGROV1 ovarian
SK-MEL-28 melanoma = test system: SK-MEL-28 melanoma
SNB-75 CNS = test system: SNB-75 CNS
SK-MEL-2 melanoma = test system: SK-MEL-2 melanoma
BT-549 breast = test system: BT-549 breast
SF-295 CNS = test system: SF-295 CNS
SR leukemia = test system: SR leukemia
HS 578T breast = test system: HS 578T breast
HCT-15 colon = test system: HCT-15 colon
SNB-19 CNS = test system: SNB-19 CNS
M14 melanoma = test system: M14 melanoma
HOP-92 NSCLC = test system: HOP-92 NSCLC
T-47D breast = test system: T-47D breast
SF-268 CNS = test system: SF-268 CNS
HCC-2998 colon = test system: HCC-2998 colon
MALME-3M melanoma = test system: MALME-3M melanoma
SK-MEL-5 melanoma = test system: SK-MEL-5 melanoma
NCI-H226 lung = test system: NCI-H226 lung
HT29 colon = test system: HT29 colon
MDA-MB-231 breast = test system: MDA-MB-231 breast
A549 NSCLC = test system: A549 NSCLC
UACC-62 melanoma = test system: UACC-62 melanoma
LOX IMVI melanoma = test system: LOX IMVI melanoma
MCF7 breast = test system: MCF7 breast
K-562 leukemia = test system: K-562 leukemia
TK-10 renal = test system: TK-10 renal
SW-620 colon = test system: SW-620 colon
NCI-H522 lung = test system: NCI-H522 lung
NCI-H460 lung = test system: NCI-H460 lung
OVCAR-5 ovarian = test system: OVCAR-5 ovarian
OVCAR-4 ovarian = test system: OVCAR-4 ovarian
CAKI-1 renal = test system: CAKI-1 renal
786-0 renal = test system: 786-0 renal
CCRF-CEM leukemia = test system: CCRF-CEM leukemia
SF-539 CNS = test system: SF-539 CNS
UACC-257 melanoma = test system: UACC-257 melanoma
HCT-116 colon = test system: HCT-116 colon
MDA-MB-435 = test system: MDA-MB-435
SK-OV-3 ovarian = test system: SK-OV-3 ovarian
RPMI-8226 leukemia = test system: RPMI-8226 leukemia
A498 renal = test system: A498 renal
SN12C renal = test system: SN12C renal
COLO 205 colon = test system: COLO 205 colon
RXF 393 renal = test system: RXF 393 renal
OVCAR-8 ovarian = test system: OVCAR-8 ovarian

SMILES: COc1ccc2c(c1)Oc1nc(N)c(C#N)c(N)c1C2Sc1ccc(C)cc1 (stereo not drawn)
- GI50 (PC-3 prostate): 1.62 µM
- TGI (PC-3 prostate): 3.04 µM
- GI50 (U251 CNS): 1.55 µM
- TGI (U251 CNS): 2.96 µM
- GI50 (KM12 colon): 1.74 µM
- TGI (KM12 colon): 3.15 µM
- GI50 (ACHN renal): 1.66 µM
- TGI (ACHN renal): 3.02 µM
- GI50 (HL-60(TB) leukemia): 1.72 µM
- TGI (HL-60(TB) leukemia): 5.26 µM
- GI50 (HOP-62 NSCLC): 1.82 µM
- TGI (HOP-62 NSCLC): 3.31 µM
- GI50 (DU-145 prostate): 1.87 µM
- TGI (DU-145 prostate): 3.34 µM
- GI50 (UO-31 renal): 1.18 µM
- TGI (UO-31 renal): 2.42 µM
- GI50 (EKVX NSCLC): 1.72 µM
- TGI (EKVX NSCLC): 3.28 µM
- GI50 (IGROV1 ovarian): 1.2 µM
- TGI (IGROV1 ovarian): 2.49 µM
- GI50 (SK-MEL-28 melanoma): 1.73 µM
- TGI (SK-MEL-28 melanoma): 3.12 µM
- GI50 (SNB-75 CNS): 1.4 µM
- TGI (SNB-75 CNS): 2.7 µM
- GI50 (SK-MEL-2 melanoma): 1.59 µM
- TGI (SK-MEL-2 melanoma): 2.94 µM
- GI50 (BT-549 breast): 1.29 µM
- TGI (BT-549 breast): 2.58 µM
- GI50 (SF-295 CNS): 1.69 µM
- TGI (SF-295 CNS): 3.08 µM
- GI50 (SR leukemia): 0.313 µM
- TGI (SR leukemia): > 100 µM
- GI50 (HS 578T breast): 2.41 µM
- TGI (HS 578T breast): 5.83 µM
- GI50 (HCT-15 colon): 1.33 µM
- TGI (HCT-15 colon): 2.83 µM
- GI50 (SNB-19 CNS): 1.72 µM
- TGI (SNB-19 CNS): 3.12 µM
- GI50 (M14 melanoma): 1.85 µM
- TGI (M14 melanoma): 3.36 µM
- GI50 (HOP-92 NSCLC): 1.64 µM
- TGI (HOP-92 NSCLC): 3.01 µM
- GI50 (T-47D breast): 1.22 µM
- TGI (T-47D breast): 3.91 µM
- GI50 (SF-268 CNS): 1.59 µM
- TGI (SF-268 CNS): 3.04 µM
- GI50 (HCC-2998 colon): 1.75 µM
- TGI (HCC-2998 colon): 3.26 µM
- GI50 (MALME-3M melanoma): 1.67 µM
- TGI (MALME-3M melanoma): 3.12 µM
- GI50 (SK-MEL-5 melanoma): 1.79 µM
- TGI (SK-MEL-5 melanoma): 3.19 µM
- GI50 (NCI-H226 lung): 1.97 µM
- TGI (NCI-H226 lung): 4.59 µM
- GI50 (HT29 colon): 1.8 µM
- TGI (HT29 colon): 3.3 µM
- GI50 (MDA-MB-231 breast): 1.71 µM
- TGI (MDA-MB-231 breast): 3.13 µM
- GI50 (A549 NSCLC): 1.77 µM
- TGI (A549 NSCLC): 3.33 µM
- GI50 (UACC-62 melanoma): 1.66 µM
- TGI (UACC-62 melanoma): 3.08 µM
- GI50 (LOX IMVI melanoma): 1.41 µM
- TGI (LOX IMVI melanoma): 2.84 µM
- GI50 (MCF7 breast): 1.26 µM
- TGI (MCF7 breast): 2.9 µM
- GI50 (K-562 leukemia): 0.584 µM
- TGI (K-562 leukemia): > 100 µM
- GI50 (TK-10 renal): 1.83 µM
- TGI (TK-10 renal): 3.22 µM
- GI50 (SW-620 colon): 1.77 µM
- TGI (SW-620 colon): 3.38 µM
- GI50 (NCI-H522 lung): 1.53 µM
- TGI (NCI-H522 lung): 2.87 µM
- GI50 (NCI-H460 lung): 1.98 µM
- TGI (NCI-H460 lung): 3.9 µM
- GI50 (OVCAR-5 ovarian): 1.78 µM
- TGI (OVCAR-5 ovarian): 3.24 µM
- GI50 (OVCAR-4 ovarian): 1.73 µM
- TGI (OVCAR-4 ovarian): 3.13 µM
- GI50 (CAKI-1 renal): 1.34 µM
- TGI (CAKI-1 renal): 2.63 µM
- GI50 (786-0 renal): 1.7 µM
- TGI (786-0 renal): 3.13 µM
- GI50 (CCRF-CEM leukemia): 0.421 µM
- TGI (CCRF-CEM leukemia): > 100 µM
- GI50 (SF-539 CNS): 1.61 µM
- TGI (SF-539 CNS): 2.98 µM
- GI50 (UACC-257 melanoma): 1.71 µM
- TGI (UACC-257 melanoma): 3.11 µM
- GI50 (HCT-116 colon): 1.75 µM
- TGI (HCT-116 colon): 3.31 µM
- GI50 (MDA-MB-435): 1.67 µM
- TGI (MDA-MB-435): 3.09 µM
- GI50 (SK-OV-3 ovarian): 1.9 µM
- TGI (SK-OV-3 ovarian): 3.39 µM
- GI50 (RPMI-8226 leukemia): 2.61 µM
- TGI (RPMI-8226 leukemia): 7.27 µM
- GI50 (A498 renal): 1.48 µM
- TGI (A498 renal): 2.8 µM
- GI50 (SN12C renal): 1.59 µM
- TGI (SN12C renal): 2.94 µM
- GI50 (COLO 205 colon): 1.9 µM
- TGI (COLO 205 colon): 3.6 µM
- GI50 (RXF 393 renal): 1.48 µM
- TGI (RXF 393 renal): 2.81 µM
- GI50 (OVCAR-8 ovarian): 1.73 µM
- TGI (OVCAR-8 ovarian): 3.14 µM
